Calls of active or inactive are those of the source.
Legend:
[1] = Counterscreen for inhibitors of Trypanosoma brucei methionyl tRNA synthetase (MetRS): Luminescence-based cell-based high throughput dose response assay to identify compounds that are cytotoxic to Jurkat human T lymphocyte cells.; type: functional
[2] = molecular target: T1, Methionyl-tRNA synthetase, putative (Trypanosoma brucei brucei, UniProt Q38C91); type: functional, Trypanosoma brucei brucei strain 927/4 GUTat10.1
T1 sequence (Q38C91 whole entry): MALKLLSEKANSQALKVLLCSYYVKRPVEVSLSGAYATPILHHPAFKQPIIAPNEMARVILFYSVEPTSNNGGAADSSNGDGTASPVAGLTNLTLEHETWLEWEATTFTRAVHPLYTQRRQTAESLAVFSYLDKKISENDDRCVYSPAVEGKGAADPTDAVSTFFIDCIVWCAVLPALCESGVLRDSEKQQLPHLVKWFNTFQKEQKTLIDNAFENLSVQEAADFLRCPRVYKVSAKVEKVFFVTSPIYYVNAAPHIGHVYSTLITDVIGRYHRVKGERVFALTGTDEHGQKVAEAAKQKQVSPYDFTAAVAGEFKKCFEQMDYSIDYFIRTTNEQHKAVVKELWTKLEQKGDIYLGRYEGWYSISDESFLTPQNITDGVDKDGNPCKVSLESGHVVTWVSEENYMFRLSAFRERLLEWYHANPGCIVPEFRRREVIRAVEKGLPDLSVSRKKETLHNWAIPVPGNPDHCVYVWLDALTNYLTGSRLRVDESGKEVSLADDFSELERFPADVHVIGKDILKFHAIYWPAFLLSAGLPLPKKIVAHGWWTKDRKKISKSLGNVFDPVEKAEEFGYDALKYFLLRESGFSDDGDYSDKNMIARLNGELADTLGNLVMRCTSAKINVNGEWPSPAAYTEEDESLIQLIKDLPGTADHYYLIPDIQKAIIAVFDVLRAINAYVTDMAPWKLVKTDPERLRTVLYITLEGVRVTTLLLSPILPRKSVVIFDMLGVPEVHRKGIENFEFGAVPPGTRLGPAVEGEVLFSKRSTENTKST

[3] = molecular target: T1, Methionyl-tRNA synthetase, putative; type: functional, Trypanosoma brucei brucei strain 927/4 GUTat10.1; remark: listed apart in the source
[4] = intracellular Trypanosoma cruzi inhibitors in host cells – cell-based, plate reader, cherry-pick samples, set 3, dose response (AID 651818); type: functional;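 note: compounds incubated with infected cells for about four days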
[5] = molecular target: Beta-galactosidase (Escherichia coli, UniProt Q8VNN2); experiment: Dose response counterscreen for EBI2 assay utilizing the enzyme, b-galactosidase.; type: functional
[6] = molecular target: T2, High affinity choline transporter 1 (Homo sapiens, UniProt Q9GZV3); experiment: CHT inhibitors, dose response, cell-based, 5-point CRC, membrane potential dye (AID 504840); type: functional
T2 sequence (Q9GZV3 whole entry): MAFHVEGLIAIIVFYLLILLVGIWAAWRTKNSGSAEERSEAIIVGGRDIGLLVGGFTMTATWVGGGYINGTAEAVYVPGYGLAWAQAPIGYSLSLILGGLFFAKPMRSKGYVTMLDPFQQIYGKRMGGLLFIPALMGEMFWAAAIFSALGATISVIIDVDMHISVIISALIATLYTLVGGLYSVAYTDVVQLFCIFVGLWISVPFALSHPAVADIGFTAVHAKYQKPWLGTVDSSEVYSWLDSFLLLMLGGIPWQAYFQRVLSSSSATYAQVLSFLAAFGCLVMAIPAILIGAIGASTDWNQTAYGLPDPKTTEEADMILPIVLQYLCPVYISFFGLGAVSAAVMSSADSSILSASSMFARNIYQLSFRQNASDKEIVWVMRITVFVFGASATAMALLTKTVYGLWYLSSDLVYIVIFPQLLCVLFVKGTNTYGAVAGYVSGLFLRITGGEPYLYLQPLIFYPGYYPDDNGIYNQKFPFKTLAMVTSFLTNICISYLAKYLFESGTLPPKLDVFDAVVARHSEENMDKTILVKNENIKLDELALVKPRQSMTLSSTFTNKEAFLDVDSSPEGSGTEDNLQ

[7] = molecular target: T3, Rac GTPase-activating protein 1 (Homo sapiens, UniProt Q9H0H5); experiment: MgcRacGAP GTPase-activating activity inhibitors, confirmation, biochemical, ADP Hunter fluorescence, primary and confirmatory (AID 624330); type: functional
T3 sequence (Q9H0H5 whole entry): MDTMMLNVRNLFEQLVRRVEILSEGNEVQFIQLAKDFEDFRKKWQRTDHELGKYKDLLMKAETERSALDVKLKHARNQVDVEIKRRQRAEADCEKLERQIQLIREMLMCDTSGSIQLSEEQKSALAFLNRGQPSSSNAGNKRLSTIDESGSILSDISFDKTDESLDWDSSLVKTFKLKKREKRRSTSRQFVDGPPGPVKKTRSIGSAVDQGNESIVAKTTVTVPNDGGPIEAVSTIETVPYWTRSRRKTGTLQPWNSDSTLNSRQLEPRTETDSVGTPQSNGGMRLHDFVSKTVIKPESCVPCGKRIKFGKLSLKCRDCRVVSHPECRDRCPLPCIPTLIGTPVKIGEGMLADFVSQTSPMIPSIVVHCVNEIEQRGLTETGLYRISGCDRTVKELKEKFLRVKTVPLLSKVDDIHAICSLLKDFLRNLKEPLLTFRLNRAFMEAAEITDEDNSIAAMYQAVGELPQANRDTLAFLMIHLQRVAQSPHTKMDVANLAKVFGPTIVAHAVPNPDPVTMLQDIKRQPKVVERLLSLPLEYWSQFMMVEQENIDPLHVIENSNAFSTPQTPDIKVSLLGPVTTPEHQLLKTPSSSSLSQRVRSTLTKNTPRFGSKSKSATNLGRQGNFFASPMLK

[8] = HeLa cell cytotoxicity, dose response, cytotoxicity control for MgcRacGAP inhibitor project (AID 624300); type: functional
[9] = molecular target: Large T antigen (Simian virus 40, UniProt P03070); type: functional, Betapolyomavirus macacae;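 note: Confirmatory-stage PubChem screen for compounds that inhibit SV40 T antigen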
[10] = molecular target: T4, Small ubiquitin-related modifier 1 (Homo sapiens, UniProt P63165); experiment: inhibitors of SUMO1 partner interactions, dose response, biochemical, FRET (AID 624383); type: functional; conditions: read-out: IC50_Mean
[11] = molecular target: T4, Small ubiquitin-related modifier 1; experiment: inhibitors of SUMO1 peptide binding, dose response, biochemical, fluorescence polarization, uHTS hits (AID 624382); type: functional; conditions: read-out: IC50_Mean
[12] = HEp-2 cell cytotoxicity, dose response, cytotoxicity control for RSV inhibitor project, HTS (AID 2410); type: functional; conditions: human respiratory syncytial virus
[13] = system: Vero; experiment: cells; type: functional; conditions: Chlorocebus sabaeus
[14] = molecular target: T5, Beta-lactamase (Pseudomonas aeruginosa, UniProt Q79MP6); experiment: […] counterscreen for selective VIM-2 inhibitors: dose response biochemical high throughput screening assay to identify inhibitors of IMP-1 metallo-beta-lactamase.
[15] = molecular target: T5, Beta-lactamase; experiment: IMP-1 metallo-beta-lactamase inhibitors, dose response, selectivity assay for VIM-2 inhibitor project, biochemical, epi-absorbance (AID 1920)
[16] = molecular target: Beta-lactamase (Salmonella choleraesuis (strain SC-B67), UniProt Q5J463); experiment: Epi-absorbance-based counterscreen for selective VIM-2 inhibitors: dose response biochemical high throughput screening assay to identify inhibitors of TEM-1 serine-beta-lactamase.
[17] = molecular target: T6, Heat shock factor protein 1 (Mus musculus, UniProt P38532); experiment: inhibition of MG132-induced HSE-luciferase signal, confirmation, cell-based, NIH3T3, luminescence, dose retest (AID 2382); type: functional;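 note: NIH3T3 fibroblasts with HSF1-driven luciferase reporter stressed by proteasome inhibitor MG132; luminescence from HSF1-driven luciferase expression after 8 hours of MG132 stress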
T6 sequence (P38532 whole entry): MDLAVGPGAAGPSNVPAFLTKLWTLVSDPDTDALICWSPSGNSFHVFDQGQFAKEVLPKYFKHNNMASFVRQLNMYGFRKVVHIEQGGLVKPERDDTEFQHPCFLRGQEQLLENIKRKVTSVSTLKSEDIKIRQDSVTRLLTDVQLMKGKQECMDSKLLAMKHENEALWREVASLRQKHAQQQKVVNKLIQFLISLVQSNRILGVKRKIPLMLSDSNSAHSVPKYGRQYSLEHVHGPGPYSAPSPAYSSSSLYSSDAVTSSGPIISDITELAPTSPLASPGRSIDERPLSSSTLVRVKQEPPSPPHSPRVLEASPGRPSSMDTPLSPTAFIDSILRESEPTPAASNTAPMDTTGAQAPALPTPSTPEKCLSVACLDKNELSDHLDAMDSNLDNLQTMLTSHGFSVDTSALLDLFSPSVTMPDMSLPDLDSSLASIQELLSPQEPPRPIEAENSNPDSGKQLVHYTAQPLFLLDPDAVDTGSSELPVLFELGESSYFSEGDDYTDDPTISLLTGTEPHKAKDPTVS

[18] = molecular target: T7, Fructose-bisphosphate aldolase (Mycobacterium tuberculosis, UniProt P9WQA3); experiment: Fluorescence-based biochemical high throughput dose response assay for inhibitors of the fructose-bisphosphate aldolase (FBA) of M. tuberculosis.; type: functional
T7 sequence (P9WQA3 whole entry): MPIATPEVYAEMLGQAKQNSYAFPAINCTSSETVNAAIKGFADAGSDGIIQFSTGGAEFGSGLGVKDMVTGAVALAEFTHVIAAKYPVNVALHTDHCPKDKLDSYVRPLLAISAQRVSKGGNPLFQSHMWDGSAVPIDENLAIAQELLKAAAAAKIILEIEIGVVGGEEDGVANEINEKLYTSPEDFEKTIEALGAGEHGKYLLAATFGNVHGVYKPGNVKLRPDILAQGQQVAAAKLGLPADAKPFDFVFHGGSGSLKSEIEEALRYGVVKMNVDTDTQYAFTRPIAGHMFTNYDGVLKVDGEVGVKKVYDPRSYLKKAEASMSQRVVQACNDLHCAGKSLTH

[19] = molecular target: Luciferin 4-monooxygenase (Photinus pyralis, UniProt P08659); experiment: firefly luciferase enzyme inhibitors, dose response, biochemical, luminescence (AID 1891)
[20] = Luminescence Cell-Based Dose Confirmation HTS to Identify Inhibitors of Platelet Dense Granule Release. [Related pubchem assays: 1663 (Primary HTS), 1678 (Summary of Project)]; type: functional

T5 sequence (Q79MP6 whole entry): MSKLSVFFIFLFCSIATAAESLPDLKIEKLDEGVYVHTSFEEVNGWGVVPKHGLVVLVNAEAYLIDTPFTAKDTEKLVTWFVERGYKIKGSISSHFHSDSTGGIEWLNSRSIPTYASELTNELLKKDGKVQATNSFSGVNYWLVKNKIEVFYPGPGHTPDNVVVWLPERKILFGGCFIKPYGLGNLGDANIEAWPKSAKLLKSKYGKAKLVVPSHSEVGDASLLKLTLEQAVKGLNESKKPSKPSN
T4 sequence (P63165 whole entry): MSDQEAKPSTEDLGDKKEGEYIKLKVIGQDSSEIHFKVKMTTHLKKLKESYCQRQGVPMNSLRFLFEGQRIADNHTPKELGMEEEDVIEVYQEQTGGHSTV
Sequence of Beta-lactamase (Salmonella choleraesuis (strain SC-B67), UniProt Q5J463) (Q5J463 whole entry): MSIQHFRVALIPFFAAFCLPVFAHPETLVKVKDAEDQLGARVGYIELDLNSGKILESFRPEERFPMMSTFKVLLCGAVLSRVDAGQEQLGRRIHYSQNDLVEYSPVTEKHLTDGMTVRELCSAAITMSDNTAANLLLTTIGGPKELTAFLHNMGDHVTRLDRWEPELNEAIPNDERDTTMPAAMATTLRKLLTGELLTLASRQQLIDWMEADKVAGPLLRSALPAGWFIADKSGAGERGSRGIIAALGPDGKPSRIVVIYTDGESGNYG
Sequence of Beta-galactosidase (Q8VNN2 whole entry): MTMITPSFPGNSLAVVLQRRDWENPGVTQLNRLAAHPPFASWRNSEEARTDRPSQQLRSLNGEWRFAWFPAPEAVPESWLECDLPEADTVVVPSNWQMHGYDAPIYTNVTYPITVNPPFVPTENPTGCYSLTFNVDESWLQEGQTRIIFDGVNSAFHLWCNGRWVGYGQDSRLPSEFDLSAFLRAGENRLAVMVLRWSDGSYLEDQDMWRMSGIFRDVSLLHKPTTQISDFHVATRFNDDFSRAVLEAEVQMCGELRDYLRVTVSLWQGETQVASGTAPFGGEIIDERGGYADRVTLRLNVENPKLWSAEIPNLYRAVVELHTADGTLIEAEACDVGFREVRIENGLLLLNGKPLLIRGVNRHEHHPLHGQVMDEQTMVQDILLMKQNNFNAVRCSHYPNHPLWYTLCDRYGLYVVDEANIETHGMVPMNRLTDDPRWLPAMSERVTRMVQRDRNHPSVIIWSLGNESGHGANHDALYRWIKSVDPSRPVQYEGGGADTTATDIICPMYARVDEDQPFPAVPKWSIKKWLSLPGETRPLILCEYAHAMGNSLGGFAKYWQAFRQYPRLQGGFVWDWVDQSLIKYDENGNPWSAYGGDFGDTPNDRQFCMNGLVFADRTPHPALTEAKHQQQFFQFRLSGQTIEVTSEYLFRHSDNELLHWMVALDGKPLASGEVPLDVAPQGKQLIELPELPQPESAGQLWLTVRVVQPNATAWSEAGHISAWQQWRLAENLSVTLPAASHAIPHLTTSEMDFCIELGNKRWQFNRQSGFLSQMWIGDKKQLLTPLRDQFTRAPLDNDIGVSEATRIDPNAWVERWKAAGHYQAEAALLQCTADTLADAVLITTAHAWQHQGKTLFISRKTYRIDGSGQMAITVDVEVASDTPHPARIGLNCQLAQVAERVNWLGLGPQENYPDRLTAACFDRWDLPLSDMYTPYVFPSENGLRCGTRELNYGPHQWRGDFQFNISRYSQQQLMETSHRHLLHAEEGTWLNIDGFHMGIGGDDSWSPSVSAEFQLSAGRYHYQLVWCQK
Sequence of Large T antigen (P03070 whole entry): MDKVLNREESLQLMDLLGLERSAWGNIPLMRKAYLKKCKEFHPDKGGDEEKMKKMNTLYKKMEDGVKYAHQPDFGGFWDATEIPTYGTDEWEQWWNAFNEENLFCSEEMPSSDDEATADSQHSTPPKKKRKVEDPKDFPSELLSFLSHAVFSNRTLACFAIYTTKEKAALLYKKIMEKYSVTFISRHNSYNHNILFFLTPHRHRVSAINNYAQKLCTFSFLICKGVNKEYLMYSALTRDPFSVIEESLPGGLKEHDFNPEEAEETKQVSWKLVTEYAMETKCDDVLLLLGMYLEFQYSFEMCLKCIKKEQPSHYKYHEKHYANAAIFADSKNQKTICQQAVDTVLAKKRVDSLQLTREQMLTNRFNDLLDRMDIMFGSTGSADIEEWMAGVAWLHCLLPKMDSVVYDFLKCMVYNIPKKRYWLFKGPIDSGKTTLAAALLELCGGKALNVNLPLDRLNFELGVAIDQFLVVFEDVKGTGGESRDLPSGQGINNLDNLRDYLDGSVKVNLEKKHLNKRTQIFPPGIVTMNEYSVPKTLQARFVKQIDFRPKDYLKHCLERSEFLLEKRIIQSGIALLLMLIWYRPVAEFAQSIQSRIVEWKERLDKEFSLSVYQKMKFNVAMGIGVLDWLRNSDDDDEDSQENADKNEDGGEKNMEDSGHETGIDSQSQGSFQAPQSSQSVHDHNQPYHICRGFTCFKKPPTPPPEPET
Sequence of Luciferin 4-monooxygenase (P08659 whole entry): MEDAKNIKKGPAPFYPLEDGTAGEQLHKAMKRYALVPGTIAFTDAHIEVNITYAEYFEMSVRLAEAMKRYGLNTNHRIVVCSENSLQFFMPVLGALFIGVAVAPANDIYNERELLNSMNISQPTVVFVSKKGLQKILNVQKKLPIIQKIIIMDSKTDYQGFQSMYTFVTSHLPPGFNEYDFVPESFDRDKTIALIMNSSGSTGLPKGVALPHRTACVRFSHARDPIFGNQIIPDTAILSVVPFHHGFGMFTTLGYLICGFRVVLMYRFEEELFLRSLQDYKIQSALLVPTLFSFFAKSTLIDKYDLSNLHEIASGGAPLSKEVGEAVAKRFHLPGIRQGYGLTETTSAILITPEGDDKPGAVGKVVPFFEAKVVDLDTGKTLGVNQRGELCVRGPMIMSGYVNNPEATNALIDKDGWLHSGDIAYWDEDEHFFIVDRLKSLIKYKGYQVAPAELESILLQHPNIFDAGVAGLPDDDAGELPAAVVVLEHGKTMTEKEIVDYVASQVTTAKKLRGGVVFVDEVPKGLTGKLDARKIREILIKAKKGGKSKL

## C[C@H](O)[C@@H]1C(=O)N2CCc3c([nH]c4ccccc34)[C@@H]2C[C@@H]1N(C)Cc1ccc(Cl)cc1
[1]
  IC50: 57.9 µM (inactive)
[2]
  IC50: 1.49 µM (active)
[3]
  IC50: 0.974 µM (active)

## C[C@H](CO)N1C[C@H](C)[C@@H](CN(C)CC2CC2)Oc2c(NC(=O)Nc3ccc4c(c3)OCO4)cccc2C1=O
[4]
  AC50: 20 µM (inactive)

## O=C(c1cc2cc(Cl)ccc2[nH]1)N1CCN(c2ccc(F)cc2)CC1
[5]
  IC50: > 80 µM (inactive)

## O=C1ON=C(c2ccccc2)/C1=C/c1ccc(O)c(O)c1
[6]
  IC50: 4.37 µM (active)
[7]
  IC50: 60 µM (active)
[8]
  CC50: 73.7 µM (active)
[9]
  IC50: 5.22 µM (active)

## CCCCCCC(=O)Nc1nc(C)c(-c2csc(Nc3cccc(OC)c3)n2)s1
[10]
  IC50: 12.9 µM (active)
[11]
  IC50: > 66.6 µM (inactive)
[12]
  CC50: 18.4 µM (active)

## COc1ccc(N2CCN(C(=O)c3cc(=O)c4cc(Cl)ccc4o3)CC2)cc1
[5]
  IC50: > 80 µM (inactive)

## CCOc1cc(/C=C2\C(=O)ON=C2c2ccccc2)cc(Br)c1O
[13]
  CC50: 17.8 µM (active)
[7]
  IC50: 61.2 µM (active)
[8]
  CC50: 100 µM (active)

## COc1ccc(C(=O)Nc2ccc(C(=O)Nc3nccs3)cc2)cc1[N+](=O)[O-]
[10]
  IC50: 9.87 µM (active)
[11]
  IC50: > 66.6 µM (inactive)

## C[C@H]1CN([C@@H](C)CO)C(=O)c2cccc(NC(=O)c3ccncc3)c2O[C@@H]1CN(C)CC1CCCCC1
[4]
  AC50: 0.365 µM (active)

## Clc1ccc2nc(C3CCN(Cc4nnnn4C4CCCCC4)CC3)[nH]c2c1
[2]
  IC50: 7.33 µM (active)
[3]
  IC50: 2.91 µM (active)

## O=C(CSc1nnc(NC(=O)c2cccc(F)c2)s1)NCc1ccco1
[14]
  IC50: > 59.6 µM (inactive)
[15]
  IC50: > 59.6 µM (inactive)
[16]
  IC50: > 59.6 µM (inactive)

## Clc1ccc2[nH]c(C3CCN(Cc4nnnn4C4CCCCC4)CC3)nc2c1
[1]
  IC50: 14.5 µM (inactive)

## CCOc1ccc(NC(S)=Nc2ccc(OC(F)(F)F)cc2)cc1
[5]
  IC50: > 80 µM (inactive)
[17]
  EC50: > 195 µM (not active)

## CCc1cc(=O)oc2c(C)c(OCC(=O)N3CCC[C@@H]3C(=O)O)ccc12
[14]
  IC50: > 59.6 µM (inactive)
[18]
  IC50: 1.65 µM (active)
[15]
  IC50: > 59.6 µM (inactive)
[16]
  IC50: > 59.6 µM (inactive)

## O=C(O)C1Sc2[nH]c(=O)sc2C2c3cc(Cl)ccc3OC(=O)C12 (centres undefined)
[14]
  IC50: > 59.6 µM (inactive)
[15]
  IC50: > 59.6 µM (inactive)
[16]
  IC50: > 59.6 µM (inactive)

## O=C(Nc1ccccc1C(=O)N/N=C/c1ccc(O)cc1)c1ccccc1
[7]
  IC50: 220 µM (active)
[8]
  CC50: 39.5 µM (active)
[19]
  EC50: 0.184 µM (active)
[20]
  EC50: 3.65 µM (active)

## Cc1ccc(S(=O)(=O)N(C)C[C@H]2Oc3c(NC(=O)c4ccc(-c5nccs5)cc4)cccc3C(=O)N([C@H](C)CO)C[C@@H]2C)cc1
[4]
  AC50: 8.72 µM (active)
